Data: US5405861A, “Triazole compounds and antifungal compositions thereof” (Takeda Chemical Industries, Co., Ltd., priority 1989, dated 1995)

Columns and labels:
[1] = test system: Candida albicans (IFO 0538); assay: Antifungal activity against Candida albicans, paper disc growth inhibition zone (Tables 5 and 6); format: cell-based; settings: 48 h, pH 7, B medium (yeast nitrogen base agar, pH 7.0), 28° C., 2 days incubation; read-out: Inhibition zone diameter
Method: (§1) The antifungal activities of the compounds (I) were evaluated by the following method: a sheet of filter paper disc (manufactured by Toyo Seisakusho, 8 mm in diameter) soaked in a 1000 μg/ml solution of a compound (I) in methanol was placed on an agar plate, which was incubated at 28° C. for 2 days, and the diameter of the growth inhibition zone around the filter paper disc was measured. The following culture media were used:
(§2) A: yeast nitrogen base agar medium
B: yeast nitrogen base agar medium (pH 7.0)

Candida albicans = assay: Infection-preventing effect in experimental infection in mice, Method 1 (Table 7-1); format: in vivo, Crj:CDF1 mice; settings: Candida albicans, sc, 168 h, s.c., given 0 and 2 hours after infection; survival 7 days after infection; total dose; read-out: ED50
Method: Method 1 (Table 7-1): To 5-week-old Crj:CDF1 mice the minimum lethal dose of Candida albicans was inoculated intravenously. The test drug was given twice 0 and 2 hours after infection. The effectiveness of the drug was expressed in ED50 values calculated by the Reed and Muench method from the survival rate 7 days after infection. The ED50 values were calculated based on the total dose given on the two occasions.

[2] = test system: Trichophyton rubrum IFO 6467; assay: Antifungal activity, paper disc growth inhibition zone (Table 4); format: cell-based; settings: IFO6467, 48 h, medium C (Sabouraud agar), 28° C., 2 days, disc soaked in 1000 μg/ml solution in methanol, read-out: Inhibition zone diameter
Method: as §1, with “measured.” for “measured. The following culture media were used:”

[3] = test system: Microsporum gypseum IFO 6075; assay: as above; format: cell-based; settings: Nannizzia gypsea, IFO6075, 48 h; medium C (Sabouraud agar), 28° C., 2 days, disc soaked in 1000 μg/ml solution in methanol; read-out: Inhibition zone diameter
Method: as §1, with “measured.” for “measured. The following culture media were used:”

[4] = test system: Trichophyton mentagrophytes IFO 7522; assay: as above; format: cell-based; settings: IFO7522, 48 h, medium C (Sabouraud agar), 28° C., 2 days, disc soaked in 1000 μg/ml solution in methanol, read-out: Inhibition zone diameter
Method: as §1, with “measured.” for “measured. The following culture media were used:”

[5] = test system: Candida albicans IFO 0583; assay: as above; format: cell-based; settings: IFO0583, 48 h, medium A, 28° C., 2 days, disc soaked in 1000 μg/ml solution in methanol, read-out: Inhibition zone diameter
Method: as §1, §2

[6] = test system: Aspergillus fumigatus IFO 6344; assay: as above; format: cell-based; settings: IFO6344, 48 h, medium A, 28° C., 2 days, disc soaked in 1000 μg/ml solution in methanol, read-out: Inhibition zone diameter
Method: as §1, §2

[7] = test system: Penicillium chrysogenum IFO 4626; assay: as above; format: cell-based; settings: IFO4626, 48 h, medium A, 28° C., 2 days, disc soaked in 1000 μg/ml solution in methanol, read-out: Inhibition zone diameter
Method: as §1, §2

[8] = test system: Aspergillus niger IFO 4066; assay: as above; format: cell-based; settings: IFO4066, 48 h, medium A, 28° C., 2 days, disc soaked in 1000 μg/ml solution in methanol, read-out: Inhibition zone diameter
Method: as §1, §2

[9] = test system: Candida albicans (Ca--O) IFO 0583; assay: as above; format: cell-based; settings: IFO0583, 48 h, medium A, 28° C., 2 days, disc soaked in 1000 μg/ml solution in methanol, read-out: Inhibition zone diameter
Method: as §1, §2

Structure (SMILES): C[C@@H](Sc1nc2c(s1)CCC2)[C@](O)(Cn1cncn1)c1ccc(F)cc1F (relative stereo) [Compound 12]
- zone of inhibition at 1000 µg/mL [1]: 25 mm
- ED50 (Candida albicans): 2.5 mg/kg
- zone of inhibition at 1000 µg/mL [2]: 35 mm
- zone of inhibition at 1000 µg/mL [3]: 35 mm
- zone of inhibition at 1000 µg/mL [4]: 32 mm
- zone of inhibition at 1000 µg/mL [5]: 42 mm
- zone of inhibition at 1000 µg/mL [6]: 38 mm
- zone of inhibition at 1000 µg/mL [7]: 15 mm
- zone of inhibition at 1000 µg/mL [8]: 20 mm
- zone of inhibition at 1000 µg/mL [9]: 41 mm

Structure (SMILES): C[C@@H](SCc1ccncc1)[C@](O)(Cn1cncn1)c1ccc(F)cc1F (relative stereo) [Compound 15]
- zone of inhibition at 1000 µg/mL [1]: 25 mm
- ED50 (Candida albicans): 2.5 mg/kg
- zone of inhibition at 1000 µg/mL [2]: 60 mm
- zone of inhibition at 1000 µg/mL [3]: 45 mm
- zone of inhibition at 1000 µg/mL [4]: 50 mm
- zone of inhibition at 1000 µg/mL [5]: 34 mm
- zone of inhibition at 1000 µg/mL [6]: 30 mm
- zone of inhibition at 1000 µg/mL [7]: 23 mm
- zone of inhibition at 1000 µg/mL [8]: 29 mm
- zone of inhibition at 1000 µg/mL [9]: 32 mm
